Results from patent US20080161249A1, “Use of Novel Antibacterial Compounds” (SMITHKLINE BEECHAM CORPORATION, priority 2004, published 2008).
In brackets after ≈: the same amount, converted by molar mass. Read-outs that look alike come from different tables or passages of the source.

Experiments:
[1] = tested on: S. aureus strain PK1; experiment: MIC against S. aureus strain PK1, alone and in combination; format: cell-based, Staphylococcus aureus; details: for MIC: Staphylococcus aureus
From the text: (§1) Subinhibitory Concentrations of PDF Inhibitors Decrease the MICs of Macrolides against Representative S. aureus Strains
(§2) Subinhibitory Concentrations of Macrolides Decrease the MICs of PDF Inhibitors against Representative S. aureus Strains

[2] = tested on: S. aureus strain RN4220; experiment: MIC against S. aureus strain RN4220, alone and in combination; format: cell-based, Staphylococcus aureus; details: for MIC: Staphylococcus aureus
[3] = tested on: S. aureus strain Oxford; experiment: MIC against S. aureus strain Oxford, alone and in combination; format: cell-based, Staphylococcus aureus; details: for MIC: Staphylococcus aureus
From the text: as §1, §2

[4] = tested on: S. aureus WCUH29; experiment: MIC against S. aureus WCUH29, alone and with subinhibitory concentrations of a second agent; format: cell-based, Staphylococcus aureus; details: for MIC: Staphylococcus aureus, WCUH29, S. aureus WCUH29
[5] = tested on: H. influenzae Q1; experiment: MIC against H. influenzae Q1, alone and with subinhibitory concentrations of a second agent; format: cell-based, Haemophilus influenzae;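 also: combinations paired PDF inhibitors with macrolides, one class added below its own MIC to test whether the MIC of the other class dropped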
[6] = tested on: representative S. aureus strains; experiment: MIC against representative S. aureus strains, summary over strains; format: cell-based, Staphylococcus aureus
From the text: as §1, §2

[7] = tested on: S. aureus strain Smith; experiment: MIC against S. aureus strain Smith, alone and in combination; format: cell-based, Staphylococcus aureus; details: for MIC: Staphylococcus aureus
[8] = single agent, read-out: MIC, Compound (1a) alone
[9] = with ¼ MIC of Tylosin, read-out: MIC, Compound (1a) with ¼ MIC of Tylosin
[10] = with ½ MIC of Tylosin, read-out: MIC, Compound (1a) with ½ MIC of Tylosin
[11] = S. aureus, text summary of Example 4
[12] = no second agent, read-out: MIC, single agent
[13] = H. influenzae Q1, +0.25 ug/m Azithromycin
[14] = H. influenzae Q1, +0.5 ug/mL Azithromycin
[15] = macrolide alone, read-out: MIC, −Compound (1a)
[16] = S. aureus WCUH29, +0.5 ug/mL Compound (1a)
[17] = S. aureus WCUH29, +1 ug/mL Compound (1a)
[18] = H. influenzae Q1, +0.5 ug/mL Compound (1a)
[19] = H. influenzae Q1, +1 ug/mL Compound (1a)

CCCCC[C@H](CN(O)C=O)C(=O)NNc1nccc(C(F)(F)F)n1 [Compound (1a), N-hydroxy-N-{(R)-2-[N′-(4-trifluoromethyl-pyrimidin-2-yl)-hydrazinocarbonyl]-heptyl}-formamide]
MIC [1, 8]: 0.5 µg/mL | MIC [1, 9]: 0.06 µg/mL | MIC [1, 10]: 0.016 µg/mL | fold decrease MIC, Compound (1a) with ¼ MIC of Tylosin ([1]; with ¼ MIC of Tylosin): [8] fold | fold decrease MIC, Compound (1a) with ½ MIC of Tylosin ([1]; with ½ MIC of Tylosin): [32] fold | MIC [2, 8]: 4 µg/mL | MIC [2, 9]: 0.25 µg/mL | MIC [2, 10]: 0.03 µg/mL | fold decrease MIC, Compound (1a) with ¼ MIC of Tylosin ([2]; with ¼ MIC of Tylosin): [16] fold | fold decrease MIC, Compound (1a) with ½ MIC of Tylosin ([2]; with ½ MIC of Tylosin): [128] fold | MIC [3, 8]: 2 µg/mL | MIC [3, 9]: 1 µg/mL | MIC [3, 10]: 0.25 µg/mL | fold decrease MIC, Compound (1a) with ¼ MIC of Tylosin ([3]; with ¼ MIC of Tylosin): [2] fold | fold decrease MIC, Compound (1a) with ½ MIC of Tylosin ([3]; with ½ MIC of Tylosin): [8] fold | Compound (1a) fold decrease MIC ([4]; S. aureus WCUH29, +Azithromycin 0.25 μg/ml {¼ × MIC}): [4] fold | Compound (1a) fold decrease MIC ([4]; S. aureus WCUH29, +Azithromycin 0.5 μg/ml {½ × MIC}): [8] fold | Compound (1a) fold decrease MIC ([4]; S. aureus WCUH29, +Ciprofloxacin 0.06 μg/ml {¼ × MIC}): [0] fold | Compound (1a) fold decrease MIC ([4]; S. aureus WCUH29, +Ciprofloxacin […] {½ × MIC}): [0] fold | Compound (1a) fold decrease MIC ([4]; S. aureus WCUH29, +Erythromycin 0.06 μg/ml {¼ × MIC}): [4] fold | Compound (1a) fold decrease MIC ([4]; S. aureus WCUH29, +Erythromycin […] {½ × MIC}): [8] fold | Compound (1a) fold decrease MIC ([4]; S. aureus WCUH29, +Tylosin 0.25 μg/ml {¼ × MIC}): [4] fold | Compound (1a) fold decrease MIC ([4]; S. aureus WCUH29, +Tylosin 0.5 μg/ml {½ × MIC}): [32] fold | decrease of MIC by subinhibitory concentrations of azithromycin [4, 11]: 4-8 fold | decrease of MIC by subinhibitory concentrations of erythromycin [4, 11]: 4-8 fold | decrease of MIC by subinhibitory concentrations of tylosin [4, 11]: 4-32 fold | effect of subinhibitory concentrations of ciprofloxacin on antibacterial potency [4, 11]: no effect | MIC ([4]; +Azithromycin 0.25 μg/ml {¼ × MIC}, read-out: Compound (1a) MIC): 0.5 µg/mL (≈ 1.38 µM) | MIC ([4]; +Azithromycin 0.5 μg/ml {½ × MIC}, read-out: Compound (1a) MIC): 0.25 µg/mL (≈ 0.688 µM) | MIC ([4]; +Ciprofloxacin 0.06 μg/ml {¼ × MIC}, read-out: Compound (1a) MIC): 2 µg/mL (≈ 5.5 µM) | MIC ([4]; +Ciprofloxacin […] {½ × MIC}, read-out: Compound (1a) MIC): 2 µg/mL (≈ 5.5 µM) | MIC ([4]; +Erythromycin 0.06 μg/ml {¼ × MIC}, read-out: Compound (1a) MIC): 0.5 µg/mL (≈ 1.38 µM) | MIC ([4]; +Erythromycin […] {½ × MIC}, read-out: Compound (1a) MIC): 0.25 µg/mL (≈ 0.688 µM) | MIC ([4]; +Tylosin 0.25 μg/ml {¼ × MIC}, read-out: Compound (1a) MIC): 0.5 µg/mL (≈ 1.38 µM) | MIC ([4]; +Tylosin 0.5 μg/ml {½ × MIC}, read-out: Compound (1a) MIC): 0.06 µg/mL (≈ 0.165 µM) | MIC [4, 12]: 2 µg/mL (≈ 5.5 µM) | MIC, antibiotic with 0.25 ug/m (¼ MIC) of Azithromycin [5, 13]: 1 µg/mL | fold decrease MIC, antibiotic with 0.25 ug/m (¼ MIC) of Azithromycin [5, 13]: [2] fold | MIC, antibiotic with 0.5 ug/mL (½ MIC) of Azithromycin [5, 14]: 0.5 µg/mL | fold decrease MIC, antibiotic with 0.5 ug/mL (½ MIC) of Azithromycin [5, 14]: [4] fold | MIC, antibiotic alone ([5]; H. influenzae Q1, single agent (Example 8)): 2 µg/mL (≈ 5.5 µM) | decrease of MIC by subinhibitory concentrations of tylosin ([6]; Example 6): 2-128 fold | MIC [7, 8]: 4 µg/mL | MIC [7, 9]: 0.5 µg/mL | MIC [7, 10]: 0.125 µg/mL | fold decrease MIC, Compound (1a) with ¼ MIC of Tylosin ([7]; with ¼ MIC of Tylosin): [8] fold | fold decrease MIC, Compound (1a) with ½ MIC of Tylosin ([7]; with ½ MIC of Tylosin): [32] fold

CC[C@H]1OC(=O)C[C@@H](O)[C@H](C)[C@@H](O[C@@H]2O[C@H](C)[C@@H](O[C@H]3C[C@@](C)(O)[C@@H](O)[C@H](C)O3)[C@H](N(C)C)[C@H]2O)[C@@H](CC=O)C[C@@H](C)C(=O)/C=C/C(C)=C/[C@@H]1CO[C@@H]1O[C@H](C)[C@@H](O)[C@@H](OC)[C@H]1OC [Tylosin, tylosin]
MIC [1, 15]: 2 µg/mL | MIC, +Compound (1a) [¼ × MIC] ([1]; with ¼ × MIC of Compound (1a)): 0.25 µg/mL | fold decrease MIC, +Compound (1a) [¼ × MIC] ([1]; with ¼ × MIC of Compound (1a)): [8] fold | MIC, +Compound (1a) [½ × MIC] ([1]; with ½ × MIC of Compound (1a)): 0.06 µg/mL | fold decrease MIC, +Compound (1a) [½ × MIC] ([1]; with ½ × MIC of Compound (1a)): [32] fold | MIC [2, 15]: 1 µg/mL | fold decrease MIC, +Compound (1a) [¼ × MIC] ([2]; with ¼ × MIC of Compound (1a)): [8] fold | MIC, +Compound (1a) [½ × MIC] ([2]; with ½ × MIC of Compound (1a)): 0.06 µg/mL | fold decrease MIC, +Compound (1a) [½ × MIC] ([2]; with ½ × MIC of Compound (1a)): [16] fold | MIC [3, 15]: 0.5 µg/mL | MIC, +Compound (1a) [¼ × MIC] ([3]; with ¼ × MIC of Compound (1a)): 0.06 µg/mL | fold decrease MIC, +Compound (1a) [¼ × MIC] ([3]; with ¼ × MIC of Compound (1a)): [8] fold | MIC, +Compound (1a) [½ × MIC] ([3]; with ½ × MIC of Compound (1a)): 0.03 µg/mL | fold decrease MIC, +Compound (1a) [½ × MIC] ([3]; with ½ × MIC of Compound (1a)): [16] fold | MIC, antibiotic with 0.5 ug/mL (¼ MIC) of Compound (1a) [4, 16]: 0.25 µg/mL | fold decrease MIC, antibiotic with 0.5 ug/mL (¼ MIC) of Compound (1a) [4, 16]: [4] fold | MIC, antibiotic with 1 ug/mL (½ MIC) of Compound (1a) [4, 17]: 0.125 µg/mL | fold decrease MIC, antibiotic with 1 ug/mL (½ MIC) of Compound (1a) [4, 17]: [8] fold | MIC, antibiotic alone ([4]; S. aureus WCUH29, single agent): 1 µg/mL (≈ 1.09 µM) | decrease of MIC by subinhibitory concentrations of Compound (1a) ([4]; S. aureus, Example 3): 4-8 fold | MIC [4, 12]: 1 µg/mL (≈ 1.09 µM) | MIC, antibiotic with 0.5 ug/mL (¼ MIC) of Compound (1a) [5, 18]: 8 µg/mL | fold decrease MIC, antibiotic with 0.5 ug/mL (¼ MIC) of Compound (1a) [5, 18]: [2] fold | MIC, antibiotic with 1 ug/mL (½ MIC) of Compound (1a) [5, 19]: 4 µg/mL | fold decrease MIC, antibiotic with 1 ug/mL (½ MIC) of Compound (1a) [5, 19]: [4] fold | MIC, antibiotic alone ([5]; H. influenzae Q1, single agent (Example 7)): 16 µg/mL (≈ 17.5 µM) | decrease of MIC by subinhibitory concentrations of Compound (1a) ([5]; H. influenzae, text summary of Example 7): 2-4 fold | decrease of MIC by subinhibitory concentrations of Compound (1a) ([6]; text summary of Example 5): 4-32 fold | MIC [7, 15]: 1 µg/mL | MIC, +Compound (1a) [¼ × MIC] ([7]; with ¼ × MIC of Compound (1a)): 0.25 µg/mL | fold decrease MIC, +Compound (1a) [¼ × MIC] ([7]; with ¼ × MIC of Compound (1a)): [4] fold | MIC, +Compound (1a) [½ × MIC] ([7]; with ½ × MIC of Compound (1a)): 0.125 µg/mL | fold decrease MIC, +Compound (1a) [½ × MIC] ([7]; with ½ × MIC of Compound (1a)): [8] fold
